What was measured:
Type in all cases: biochemical
MMP-1 = molecular target: T1, MMP-1 (Homo sapiens, UniProt P03956); experiment: MMP-1 inhibitory action (Type I collagen Activity Measurement kit, FITC-labeled collagen type I); details: MMP-1 inhibitory action, FITC-labeled collagen type I, 37° C. for 3 hr; read-out: IC50 MMP1 (Experimental Example 2)
T1 sequence (P03956 100-469): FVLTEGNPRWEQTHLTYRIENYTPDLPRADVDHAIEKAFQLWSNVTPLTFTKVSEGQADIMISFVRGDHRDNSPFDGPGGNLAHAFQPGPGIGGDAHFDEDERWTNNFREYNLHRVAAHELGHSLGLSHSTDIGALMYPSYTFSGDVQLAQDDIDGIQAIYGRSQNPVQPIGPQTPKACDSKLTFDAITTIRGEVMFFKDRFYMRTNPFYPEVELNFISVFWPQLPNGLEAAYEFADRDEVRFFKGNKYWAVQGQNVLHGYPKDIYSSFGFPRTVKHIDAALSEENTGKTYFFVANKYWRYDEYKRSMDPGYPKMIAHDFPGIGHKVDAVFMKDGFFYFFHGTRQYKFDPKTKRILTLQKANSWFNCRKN

aggrecanase-1 = molecular target: T2, aggrecanase-1 (Homo sapiens, UniProt O75173); experiment: Aggrecanase-1 inhibitory action (Particle Assay, GAG release from aggrecan-containing polyacrylamide particles); details: aggrecanase-1 inhibitory action; read-out: IC50 AG1 (Experimental Example 1)
T2 sequence (O75173 213-837): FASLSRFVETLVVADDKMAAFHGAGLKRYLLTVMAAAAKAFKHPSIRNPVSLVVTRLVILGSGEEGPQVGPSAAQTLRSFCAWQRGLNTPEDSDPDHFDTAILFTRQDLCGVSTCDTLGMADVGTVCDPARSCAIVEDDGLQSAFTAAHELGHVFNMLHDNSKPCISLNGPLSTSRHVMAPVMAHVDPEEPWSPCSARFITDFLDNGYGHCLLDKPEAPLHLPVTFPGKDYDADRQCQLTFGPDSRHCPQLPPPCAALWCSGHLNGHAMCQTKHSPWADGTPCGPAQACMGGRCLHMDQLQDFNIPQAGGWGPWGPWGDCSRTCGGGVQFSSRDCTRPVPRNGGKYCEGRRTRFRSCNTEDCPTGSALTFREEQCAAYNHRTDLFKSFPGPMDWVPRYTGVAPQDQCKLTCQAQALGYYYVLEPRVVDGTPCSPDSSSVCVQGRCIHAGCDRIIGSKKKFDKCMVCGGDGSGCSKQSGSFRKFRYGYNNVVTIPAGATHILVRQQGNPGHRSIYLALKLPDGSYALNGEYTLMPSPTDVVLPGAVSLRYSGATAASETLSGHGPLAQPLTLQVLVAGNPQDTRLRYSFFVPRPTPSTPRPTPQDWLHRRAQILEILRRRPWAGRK
How it was run: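 Readout was dimethylmethylene blue absorbance (595 nm) of glycosaminoglycan liberated into supernatant, calibrated with whale chondroitin sulfate. Substrate was aggrecan in polyacrylamide particles, digested 15 h at 37° C in Tris-HCl; TC50 (μM) derived from inhibition relative to no-enzyme and no-inhibitor controls.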

Recombinant Human MMP-13 = molecular target: T3, Recombinant Human MMP-13 (Homo sapiens, UniProt P45452); experiment: MMP-13 inhibitory activity (MMP-13 specific fluorescent substrate with quencher); details: Recombinant Human MMP-13, fluorescent substrate, 25° C. for 1 h; read-out: IC50 MMP13 (Experimental Example 3)
T3 construct: purchased R&D systems 511-MM
How it was run: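 IC50 (μM) derived from % inhibition, normalised to wells without enzyme and without inhibitor, fluorescence read at 325/405 nm. Enzyme and compound preceded addition of the quenched 7-MCA…DPA substrate; Tris-HCl buffer, 25 °C for 1 h, acetic-acid stop.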

Row | Structure (SMILES) | IC50 (MMP-1) | IC50 (aggrecanase-1) | IC50 (Recombinant Human MMP-13)
1 | CC1(C)COC(c2ccccc2C2CC2(NS(=O)(=O)c2ccc(-c3ccc(Cl)cc3)s2)C(=O)O)=N1 (stereo not drawn) [Example 2-77] | ≥ 1000 nM | < 100 nM | < 1000 nM
2 | CC(C)(CO)NC(=O)c1ccccc1C1CC1(NS(=O)(=O)c1ccc(-c2ccc(Cl)cc2)s1)C(=O)O (stereo not drawn) [Example 2-78] | ≥ 10000 nM | < 100 nM | < 1000 nM
3 | Cc1ncc(-c2ccc(S(=O)(=O)NC3(C(=O)O)CC3c3ccccc3)s2)o1 (stereo not drawn) [Example 2-79] | ≥ 10000 nM | ≥ 10000 nM | ≥ 10000 nM
4 | CC(=O)c1ccc(S(=O)(=O)NC2(C(=O)O)CC2c2ccccc2)cc1 (stereo not drawn) [Example 2-80] | ≥ 10000 nM | ≥ 10000 nM | ≥ 10000 nM
5 | O=C(O)C1(NS(=O)(=O)c2ccc(S(=O)(=O)c3ccccc3)s2)CC1c1ccccc1 (stereo not drawn) [Example 2-81] | ≥ 10000 nM | ≥ 10000 nM | ≥ 10000 nM
6 | O=C(O)C1(NS(=O)(=O)c2ccc(Cl)s2)CC1c1ccccc1 (stereo not drawn) [Example 2-82] | ≥ 10000 nM | ≥ 10000 nM | ≥ 10000 nM
7 | O=C(O)C1(NS(=O)(=O)c2cccs2)CC1c1ccccc1 (stereo not drawn) [Example 2-83] | ≥ 10000 nM | ≥ 10000 nM | ≥ 10000 nM
8 | CC(F)(F)c1cc(-c2ccc(S(=O)(=O)N[C@@]3(C(=O)O)C[C@@H]3c3ccccc3)s2)no1 [Example 2-84] | < 1000 nM | < 100 nM | < 100 nM
9 | Cc1cc(-c2ccc(S(=O)(=O)N[C@@]3(C(=O)O)C[C@@H]3c3ccccc3)s2)no1 [Example 2-85] | ≥ 1000 nM | < 1000 nM | < 100 nM
10 | Cc1csc(-c2cccc(C3CC3(NS(=O)(=O)c3ccc(-c4ccc(Cl)cc4)s3)C(=O)O)c2)n1 (stereo not drawn) [Example 2-86] | ≥ 10000 nM | < 100 nM | < 1000 nM
11 | Cc1nc(-c2ccc(S(=O)(=O)NC3(C(=O)O)CC3c3ccccc3)s2)co1 (stereo not drawn) [Example 2-87] | ≥ 10000 nM | ≥ 10000 nM | ≥ 1000 nM
12 | Cc1nc(-c2ccc(S(=O)(=O)NC3(C(=O)O)CC3c3ccccc3)s2)c(Cl)o1 (stereo not drawn) [Example 2-88] | ≥ 10000 nM | ≥ 10000 nM | ≥ 10000 nM
13 | COCCN(C)Cc1ccccc1C1CC1(NS(=O)(=O)c1ccc(-c2ccc(Cl)cc2)s1)C(=O)O (stereo not drawn) [Example 2-89] | ≥ 10000 nM | ≥ 1000 nM | ≥ 1000 nM
14 | CCCc1cc(-c2ccc(S(=O)(=O)N[C@@]3(C(=O)O)C[C@@H]3c3ccccc3)s2)no1 [Example 2-90] | ≥ 1000 nM | ≥ 1000 nM | < 100 nM
15 | O=C(O)C1(NS(=O)(=O)c2ccc(-c3ccc(Cl)cc3)s2)CC1c1ccccc1CN1CCOCC1 (stereo not drawn) [Example 2-91] | ≥ 10000 nM | < 1000 nM | < 1000 nM
16 | CCc1cc(-c2ccc(S(=O)(=O)N[C@@]3(C(=O)O)C[C@@H]3c3ccccc3)s2)no1 [Example 2-92] | < 1000 nM | < 100 nM | < 100 nM
17 | CCCNC(=O)c1ccc(S(=O)(=O)NC2(C(=O)O)CC2c2ccccc2)s1 (stereo not drawn) [Example 2-93] | ≥ 10000 nM | ≥ 10000 nM | ≥ 1000 nM
18 | CC(C)NC(=O)c1ccc(S(=O)(=O)NC2(C(=O)O)CC2c2ccccc2)s1 (stereo not drawn) [Example 2-94] | ≥ 10000 nM | ≥ 10000 nM | ≥ 10000 nM
19 | O=C(NC1CCCC1)c1ccc(S(=O)(=O)NC2(C(=O)O)CC2c2ccccc2)s1 (stereo not drawn) [Example 2-95] | ≥ 10000 nM | ≥ 10000 nM | ≥ 10000 nM
20 | O=C(Nc1ccccc1)c1ccc(S(=O)(=O)NC2(C(=O)O)CC2c2ccccc2)s1 (stereo not drawn) [Example 2-96] | ≥ 10000 nM | ≥ 10000 nM | < 1000 nM
21 | O=C(NCCC(F)(F)F)c1ccc(S(=O)(=O)NC2(C(=O)O)CC2c2ccccc2)s1 (stereo not drawn) [Example 2-97] | ≥ 10000 nM | ≥ 10000 nM | ≥ 10000 nM
22 | O=C(O)[C@]1(NS(=O)(=O)c2ccc(-c3cc(CF)on3)s2)C[C@@H]1c1ccccc1 [Example 2-98] | ≥ 1000 nM | < 100 nM | < 100 nM

The next lines start with the values.

Row | IC50 (MMP-1) | IC50 (aggrecanase-1) | IC50 (Recombinant Human MMP-13) | Structure (SMILES)
23 | < 1000 nM | < 100 nM | < 1000 nM | O=C(O)[C@]1(NS(=O)(=O)c2ccc(-c3cc(C(F)F)on3)s2)C[C@@H]1c1ccccc1 [Example 2-99]
24 | < 1000 nM | < 100 nM | < 100 nM | C[C@]1(c2ccccc2)C[C@@]1(NS(=O)(=O)c1ccc2c(c1)Cc1cc(Br)ccc1-2)C(=O)O [Example 2-100]
25 | ≥ 1000 nM | < 100 nM | < 1000 nM | C[C@]1(c2ccccc2)C[C@@]1(NS(=O)(=O)c1ccc(-c2ccc(Cl)cc2)s1)C(=O)O [Example 2-101]
26 | ≥ 10000 nM | ≥ 10000 nM | ≥ 10000 nM | O=C(O)c1ccc(S(=O)(=O)NC2(C(=O)O)CC2c2ccccc2)s1 (stereo not drawn) [Example 2-103]
27 | ≥ 10000 nM | ≥ 10000 nM | ≥ 10000 nM | CCNC(=O)c1ccc(S(=O)(=O)NC2(C(=O)O)CC2c2ccccc2)s1 (stereo not drawn) [Example 2-104]
28 | ≥ 10000 nM | ≥ 10000 nM | ≥ 10000 nM | O=C(NC1CC1)c1ccc(S(=O)(=O)NC2(C(=O)O)CC2c2ccccc2)s1 (stereo not drawn) [Example 2-105]
29 | ≥ 10000 nM | ≥ 10000 nM | ≥ 10000 nM | O=C(NCC(F)(F)F)c1ccc(S(=O)(=O)NC2(C(=O)O)CC2c2ccccc2)s1 (stereo not drawn) [Example 2-106]
30 | < 1000 nM | < 100 nM | < 100 nM | CC(F)(F)c1cc(-c2ccc(S(=O)(=O)N[C@@]3(C(=O)O)C[C@]3(C)c3ccccc3)s2)no1 [Example 2-107]
31 | ≥ 1000 nM | < 100 nM | < 100 nM | CC(=O)OCCc1cccc(C2CC2(NS(=O)(=O)c2ccc(-c3ccc(Cl)cc3)s2)C(=O)O)c1 (stereo not drawn) [Example 2-108]
32 | ≥ 10000 nM | < 100 nM | < 100 nM | O=C(O)C1(NS(=O)(=O)c2ccc(-c3ccc(Cl)cc3)s2)CC1c1cccc(CCO)c1 (stereo not drawn) [Example 2-109]
33 | ≥ 1000 nM | < 1000 nM | < 100 nM | COCc1cc(-c2ccc(S(=O)(=O)N[C@@]3(C(=O)O)C[C@@H]3c3ccccc3)s2)no1 [Example 2-110]
34 | ≥ 10000 nM | ≥ 1000 nM | < 1000 nM | O=C(O)[C@]1(NS(=O)(=O)c2ccc(-c3cc(C(F)(F)C(F)(F)F)on3)s2)C[C@@H]1c1ccccc1 [Example 2-111]
35 | ≥ 10000 nM | < 1000 nM | ≥ 1000 nM | C[C@]1(c2ccccc2)C[C@@]1(NS(=O)(=O)c1ccc(-c2cc(C(F)(F)C(F)(F)F)on2)s1)C(=O)O [Example 2-112]
36 | < 1000 nM | < 100 nM | < 100 nM | O=C(O)[C@]1(NS(=O)(=O)c2ccc(-c3cc4ccccc4s3)s2)C[C@@H]1c1ccccc1 [Example 2-113]
37 | < 1000 nM | ≥ 1000 nM | < 100 nM | O=C(O)[C@]1(NS(=O)(=O)c2ccc(-c3cc(-c4ccccc4)on3)s2)C[C@@H]1c1ccccc1 [Example 2-114]
38 | ≥ 10000 nM | ≥ 10000 nM | ≥ 10000 nM | CCC(=O)c1ccc(S(=O)(=O)NC2(C(=O)O)CC2c2ccccc2)s1 (stereo not drawn) [Example 2-116]
39 | ≥ 10000 nM | ≥ 10000 nM | ≥ 10000 nM | CCCC(=O)c1ccc(S(=O)(=O)NC2(C(=O)O)CC2c2ccccc2)s1 (stereo not drawn) [Example 2-117]
40 | < 1000 nM | < 100 nM | < 100 nM | O=C(O)[C@]1(NS(=O)(=O)c2ccc(-c3cc(C(F)F)sn3)s2)C[C@@H]1c1ccccc1 [Example 2-119]
41 | < 1000 nM | < 100 nM | < 100 nM | O=C(O)[C@]1(NS(=O)(=O)c2ccc(-c3cc(CF)sn3)s2)C[C@@H]1c1ccccc1 [Example 2-120]
42 | < 1000 nM | < 100 nM | < 100 nM | C[C@]1(c2ccccc2)C[C@@]1(NS(=O)(=O)c1ccc(-c2cc(CF)sn2)s1)C(=O)O [Example 2-121]

— patent US20080261994A1, “CYCLOPROPANE COMPOUNDS AND PHARMACEUTICAL USE THEREOF” (Japan Tobacco Inc., priority 2003, published 2008)
